{
  "source": "paper doi:10.1101/2024.03.18.584035v1",
  "about": "(biorxiv, 2024)",
  "target": "T1, olTRPM2 (Oryzias latipes, UniProt H2MNZ1)",
  "T1 sequence (H2MNZ1 1-1431)": "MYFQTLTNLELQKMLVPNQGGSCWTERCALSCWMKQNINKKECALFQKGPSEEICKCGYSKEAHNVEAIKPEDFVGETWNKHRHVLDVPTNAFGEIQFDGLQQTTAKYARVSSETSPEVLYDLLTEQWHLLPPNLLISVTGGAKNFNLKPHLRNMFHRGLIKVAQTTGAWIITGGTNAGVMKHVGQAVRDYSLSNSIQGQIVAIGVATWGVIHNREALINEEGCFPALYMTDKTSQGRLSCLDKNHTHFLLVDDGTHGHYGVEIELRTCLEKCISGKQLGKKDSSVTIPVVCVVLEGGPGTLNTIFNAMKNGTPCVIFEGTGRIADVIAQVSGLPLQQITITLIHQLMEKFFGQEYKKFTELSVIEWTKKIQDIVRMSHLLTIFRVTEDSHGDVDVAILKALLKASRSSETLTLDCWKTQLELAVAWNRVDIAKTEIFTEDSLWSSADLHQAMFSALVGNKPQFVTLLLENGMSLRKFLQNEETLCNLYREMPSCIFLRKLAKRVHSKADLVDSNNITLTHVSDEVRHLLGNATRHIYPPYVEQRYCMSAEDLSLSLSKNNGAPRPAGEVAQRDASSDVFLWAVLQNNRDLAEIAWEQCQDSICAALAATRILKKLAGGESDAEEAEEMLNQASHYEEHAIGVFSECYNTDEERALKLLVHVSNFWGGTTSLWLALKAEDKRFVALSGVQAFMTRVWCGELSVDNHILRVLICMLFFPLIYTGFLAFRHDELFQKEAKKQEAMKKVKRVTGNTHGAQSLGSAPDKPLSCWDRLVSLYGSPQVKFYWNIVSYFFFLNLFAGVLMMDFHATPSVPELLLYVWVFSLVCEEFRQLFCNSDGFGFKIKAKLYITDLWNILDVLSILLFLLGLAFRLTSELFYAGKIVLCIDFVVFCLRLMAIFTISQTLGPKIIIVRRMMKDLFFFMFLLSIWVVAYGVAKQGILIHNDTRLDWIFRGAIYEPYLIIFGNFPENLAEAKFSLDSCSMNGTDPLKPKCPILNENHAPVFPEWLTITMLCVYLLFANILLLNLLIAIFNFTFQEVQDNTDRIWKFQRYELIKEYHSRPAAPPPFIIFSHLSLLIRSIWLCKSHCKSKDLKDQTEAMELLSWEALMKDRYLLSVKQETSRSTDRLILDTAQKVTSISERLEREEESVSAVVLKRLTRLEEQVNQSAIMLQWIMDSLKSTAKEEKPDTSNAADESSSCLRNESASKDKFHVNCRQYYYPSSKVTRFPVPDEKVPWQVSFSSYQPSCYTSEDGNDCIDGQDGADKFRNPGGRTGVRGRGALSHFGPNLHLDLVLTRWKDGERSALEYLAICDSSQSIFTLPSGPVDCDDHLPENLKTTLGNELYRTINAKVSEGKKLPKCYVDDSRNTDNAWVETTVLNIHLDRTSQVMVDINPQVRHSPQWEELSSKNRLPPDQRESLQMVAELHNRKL",
  "assay": "whole-cell patch clamp, HEK293T",
  "type": "cell-based",
  "details": "intracellular ADPR; room temperature; pH 7.4; -80 mV; agonist",
  "data": [
    {"smiles": "Nc1ncnc2c1ncn2[C@@H]1O[C@H](COP(=O)(O)OP(=O)(O)OC[C@H]2OC(O)[C@H](O)[C@@H]2O)[C@@H](O)[C@H]1O", "note": "(stereo partly shown) [ADPR, adenosine diphosphate ribose]", "values": [
      {"measurement": "EC50", "value": "1100 ± 800", "unit": "nM"}
    ]}
  ]
}
